Test results reported in US8029980B2, “Identification and use of agents that modulate oncogenic transcription agent activity” (The Board of Trustees of the University of Illinois, priority 2006, dated 2011).
“Also recorded” adds a separate entry of the source.

What was measured:
[1] = molecular target: T1, FoxM1 (Homo sapiens, UniProt Q08050); assay: FoxM1-responsive firefly luciferase reporter assay in C3-Luc cells; type: cell-based; details: C3-Luc cells, 1 μg/mL doxycycline (60-fold induction), 5 μM compound, 24 hrs
T1 construct: expressed in transfected cells; host or cells: U2OS clone C3 / C3-Luc
T1 sequence (Q08050 1-748 isoform Q08050-2): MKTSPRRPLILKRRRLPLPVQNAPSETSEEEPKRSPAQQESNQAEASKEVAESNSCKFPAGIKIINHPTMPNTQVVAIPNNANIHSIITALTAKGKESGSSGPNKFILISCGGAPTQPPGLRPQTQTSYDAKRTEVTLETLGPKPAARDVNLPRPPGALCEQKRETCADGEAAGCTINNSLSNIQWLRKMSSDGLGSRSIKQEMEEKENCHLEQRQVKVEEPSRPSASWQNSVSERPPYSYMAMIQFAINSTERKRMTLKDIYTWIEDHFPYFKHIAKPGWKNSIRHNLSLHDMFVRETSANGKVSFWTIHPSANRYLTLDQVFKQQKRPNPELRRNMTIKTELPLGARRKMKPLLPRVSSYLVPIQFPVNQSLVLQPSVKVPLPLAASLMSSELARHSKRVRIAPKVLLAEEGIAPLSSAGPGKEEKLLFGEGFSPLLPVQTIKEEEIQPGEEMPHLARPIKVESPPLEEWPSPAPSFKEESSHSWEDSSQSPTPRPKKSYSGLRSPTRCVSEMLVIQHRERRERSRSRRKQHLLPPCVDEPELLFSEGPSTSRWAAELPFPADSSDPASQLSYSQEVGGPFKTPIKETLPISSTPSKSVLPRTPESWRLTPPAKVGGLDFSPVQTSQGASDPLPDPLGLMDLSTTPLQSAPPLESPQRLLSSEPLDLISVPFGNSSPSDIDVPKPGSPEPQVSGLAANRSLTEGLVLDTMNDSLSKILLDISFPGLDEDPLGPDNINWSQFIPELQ
Procedure: FIG. 6. Thiostrepton and Siomycin A both inhibit FoxM1 transcriptional activity. […] The next day, the luciferase activity was measured with the Dual-Luciferase reporter assay system (E1910; Promega) according to the manufacturer's instructions.
The development of U2OS clone C3 cell line with doxycyclin inducible FoxM1-GFP fusion protein has been described before (17). This cell line was transfected with a plasmid expressing firefly luciferase under the control of 6× FoxM1 responsive (FoxRE) promoter (17), along with pcDNA3.1 (Invitrogen, Carlsbad, Calif.) plasmid that expresses neomycin phospho-transferase. […] This clone was further transfected with pRL-CMV (Promega) that expresses renilla luciferase along with pLPCX-puro (Clontech), and the cells were selected in 2 μg/ml puromycin. This cell line which expresses FoxM1-dependent firefly luciferase and constitutive renilla luciferase was named as C3-Luc and used for the screening of compound libraries (Challenge set and Diversity set) from the National Cancer Institute.
For high-throughput screening, the C3-Luc cells were grown in 96-well plates and treated overnight with a combination of 1 μg/ml doxycycline and 10 μM of compounds from the library. Next day, the firefly and renilla luciferase activities were measured with the Dual Glo system (E2940; Promega).
For the other luciferase assay experiments, the cells were treated as indicated in the FIG. 1 legend and the luciferase activity was measured using the Dual Luciferase reporter assay system (E1910; Promega) according to the manufacturer's instructions.

[2] = test system: Liver cancer cell lines Huh7, Hep-3B and SK-Hep; assay: FoxM1 and cleaved caspase-3 immunoblot in liver cancer cell lines; type: cell-based, human; details: 10 μM, 48 hrs
Procedure: FIG. 9. […] Liver cancer cell lines Huh7, Hep-3B and SK-Hep were treated with 10 μM Siomycin A and thiostrepton, respectively, for 48 hrs, and the cell lysates were analyzed for the levels of FoxM1 and cleaved caspase-3 by immunoblotting.
(§1) Immunoblotting was performed as described (18-20) with antibodies specific for p21 (556431; BD Pharmingen), survivin (sc-10811; Santa Cruz), cleaved caspase-3 (9664; Cell Signaling), and β-actin (A5441; Sigma) antibodies. Immunoblot for FoxM1 was done using the previously generated rabbit antisera (2), and phospho-FoxM1 was detected using the MPM2 monoclonal antibody (Upstate Biotechnology) which recognizes the phosphorylated protein sequence phosphoserine/phosphothreonine-proline.
First, we treated liver cancer cell lines Huh7, Hep-3B and SK-Hep that have deleted or mutant p53 with these compounds for 48 hrs, and the cell lysates were analyzed for the levels of FoxM1 and cleaved caspase-3 by immunoblotting.

[3] = test system: Leukemia cell lines CEM, HL60 and U937; assay: FoxM1 and cleaved caspase-3 immunoblot in leukemia cell lines; type: cell-based, human; details: 5 μM, 48 hrs
Procedure: FIG. 10. […] Leukemia cell lines CEM, HL60 and U937 were treated with 5 μM Siomycin A and thiostrepton, respectively, for 48 hrs and the cell lysates were analyzed for the levels of FoxM1 and cleaved caspase-3 by immunoblotting.
as §1
Next we treated leukemia cell lines with mutant p53 CEM, HL60 and U937 with 5 μM of these compounds for 48 hrs and the cell lysates were analyzed for the levels of FoxM1 and cleaved caspase-3 by immunoblotting.

[4] = test system: Breast cancer cell lines BT-474, MDA-MB-231, T-47D and ZR-75-1; assay: FoxM1 and cleaved caspase-3 immunoblot in breast cancer cell lines; type: cell-based, human; details: 5 μM, 48 hrs
Procedure: FIG. 7. […] Breast cancer cell lines BT-474, MDA-MB-231, T-47D and ZR-75-1 were treated with 5 μM Siomycin and thiostrepton, respectively, for 48 hrs and the cell lysates were analyzed for the levels of FoxM1 and cleaved caspase-3 by immunoblotting.
as §1

[5] = test system: NB7 and NB7-casp8 neuroblastoma cells; assay: FoxM1 and cleaved caspase-3 immunoblot in neuroblastoma cells; type: cell-based; details: 24 hrs
Procedure: FIG. 11. […] Cells were treated with Siomycin A, thiostrepton or DMSO, harvested 24 hrs later and the lysates were used to determine proteins levels by immunoblotting with antibodies specific for FoxM1, cleaved caspase-3 and β-actin (AS441, Sigma).

`C=C(NC(=O)C(=C)NC(=O)c1csc(C2=N[C@@H]3c4csc(n4)[C@H]4NC(=O)c5csc(n5)[C@H]([C@](C)(O)[C@@H](C)O)NC(=O)[C@H]5CSC(=N5)/C(=C/C)NC(=O)[C@H]([C@@H](C)O)NC(=O)c5csc(n5)[C@]3(CC2)NC(=O)[C@H](C)NC(=O)C(=C)NC(=O)[C@H](C)NC(=O)[C@H]([C@@H](C)CC)N[C@@H]2C=Cc3c([C@H](C)O)cc(nc3[C@H]2O)C(=O)O[C@@H]4C)n1)C(N)=O` [thiostrepton] was tested. Which “relative firefly luciferase activity (FoxM1 transcriptional activity)” value [1] did it give?
Its value is “efficiently reduced the value to basal levels”.

And the FoxM1 protein expression [2]?
Its FoxM1 protein expression is “repress FoxM1 protein expression”.

What about the “apoptosis (cleaved caspase-3)” value [2] of the same compound?
Its value is “induce apoptosis”.

And the FoxM1 expression [3]?
The FoxM1 expression was “inhibit FoxM1 expression”.

And the “apoptosis (cleaved caspase-3)” value [3]?
Its value is “induce apoptosis”.

And the FoxM1 expression [4]?
The FoxM1 expression was “stronger inhibitor of FoxM1; also recorded: inhibit FoxM1 expression”.

And the “apoptosis (cleaved caspase-3)” value [4]?
The value was “more efficient inducer of apoptosis than Siomycin A; also recorded: induce apoptosis”.

And the “apoptosis (cleaved caspase-3)” value ([5]; NB7 and NB7 with reconstituted caspase-8)?
Its value is “induce apoptosis in these neuroblastoma cells independently from caspase-8”.

And the FoxM1 protein expression ([5]; immunoblot)?
The FoxM1 protein expression was “inhibit FoxM1 protein expression”.
